Source: patent US10077287B2, “Tubulysin analogs and methods of making and use” (priority 2014, dated 2018)

How the values were obtained:
H226 (human lung cancer) = assay: Inhibition of cell proliferation (ATP luminescence or MTS assay), H226; assay type: cell-based; conditions: NCI-H226, 72 h, read-out: Cancer Cell Line: EC50 (nM) H226
Protocol: (§1) The cancer cells lines tested against were: H226 (human lung cancer); N87 (human gastric cancer), OVCAR3 (human ovarian cancer), HCT116 (human colon cancer), HCT116NM46 (HCT116 subline with multi-drug resistance, including to paclitaxel), and ACR (human breast cancer, multi-drug resistant). Table II also includes comparative data against reference compounds (A)-(G) not according to this invention:
(§2) The ability of test compounds to inhibit cell proliferation was measured by either an ATP luminescence assay or an MTS cell proliferation assay. […] In some instances, both methods were used.
(§3) This is a general procedure for an ATP luminescence assay: Cells are seeded at 1×10^3 cells/well in 96-well plates for 3 h for ATP CellTiterGlo™ assays, respectively. Serial dilutions (1:3) of compounds are added to the wells. Plates are allowed to incubate for 72 h. A CellTiterGlo™ cell viability kit from Promega is used to measure ATP content of cells treated with test compounds following manufacturer's instruction. A decrease in the ATP content is a measure of decrease in cellular viability. The EC50 value—the concentration at which an agent reduces cell viability by 50% of the maximum effect—is determined using PRISM™ software, version 5.0 (GraphPad Software, La Jolla, Calif., USA).
(§4) The following is a description of the MTS cell proliferation assay: CellTiter 96 Aqueous Non-Radioactive Cell proliferation Kit from Promega (Madison, Wis.) is used to determine the number of viable cells in cell proliferation assay. Tumor cells are plated at certain seeding densities in sterile 384-well black clear bottom Matrix plates at 40 μL per well and incubated overnight at 37° C. in 5% CO2 before assaying. On the next day, one set of cell plates (T0 plates) is used to determine time zero cell density, and 3-(4,5-dimethylthiazol-2-yl)-5-(3-carboxymethoxyphenyl)-2-(4-sulfophenyl)-2H-tetrazolium is added at 4 μL/well into T0 plates followed by incubation at 37° C. in 5% CO2 for three hours. This tetrazolium reagent is bioreduced by […] to form a formazan product which is soluble in aqueous solution. Absorbance at 490 nm is measured on an Envision reader (Perkin Elmer, Boston, Mass.). On the same day, compounds are added into remaining cell plates (T72 plates) and incubated at 37° C. in 5% CO2. After 72 hours, 4 μL MTS reagents are then added into those cell plates. The plates are further incubated at 37° C. in 5% CO2 for three hours and the absorbance values at A490 were measured on an Envision reader.

[1] = tested on: N87 (human gastric cancer); assay: Inhibition of cell proliferation (ATP luminescence or MTS assay), N87; assay type: cell-based; conditions: 72 h, read-out: Cancer Cell Line: EC50 (nM) N87
Protocol: as §1, §2, §3, §4

[2] = tested on: OVCAR3 (human ovarian cancer); assay: Inhibition of cell proliferation (ATP luminescence or MTS assay), OVCAR3; assay type: cell-based; conditions: OVCAR-3, 72 h, read-out: Cancer Cell Line: EC50 (nM) OVCAR3
Protocol: as §1, §2, §3, §4

[3] = tested on: HCT116 (human colon cancer); assay: Inhibition of cell proliferation (ATP luminescence or MTS assay), HCT116; assay type: cell-based; conditions: HCT-116, 72 h, read-out: Cancer Cell Line: EC50 (nM) HCT116
Protocol: as §1, §2, §3, §4

[4] = tested on: HCT116/VM46 (HCT116 subline with multi-drug resistance, including to paclitaxel); assay: Inhibition of cell proliferation (ATP luminescence or MTS assay), HCT116/VM46; assay type: cell-based; conditions: Homo sapiens, HCT-116/VM46, multi-drug resistant HCT116 subline, 72 h, read-out: Cancer Cell Line: EC50 (nM) HCT116/VM46
Protocol: as §1, §2, §3, §4

[5] = tested on: ADR (human breast cancer, multi-drug resistant); assay: Inhibition of cell proliferation (ATP luminescence or MTS assay), ADR; assay type: cell-based; conditions: 72 h, read-out: Cancer Cell Line: EC50 (nM) ADR
Protocol: as §1, §2
This is a general procedure for an ATP luminescence assay: Cells are seeded at 1×10^3 cells/well in 96-well plates for 3 h for ATP CellTiterGlo™ assays, respectively. Serial dilutions (1:3) of compounds are added to the wells. Plates are allowed to incubate for 72 h. […]
The following is a description of the MTS cell proliferation assay: CellTiter 96 Aqueous Non-Radioactive Cell proliferation Kit from Promega (Madison, Wis.) is used to determine the number of viable cells in cell proliferation assay. […] Absorbance at 490 nm is measured on an Envision reader (Perkin Elmer, Boston, Mass.). […] The plates are further incubated at 37° C. in 5% CO2 for three hours and the absorbance values at A490 were measured on an Envision reader.

cancer cells [6] = conditions: Kaur et al. 2006; cited from earlier work
[7] = tested on: various cancer cell lines; conditions: Kaur et al. 2006; cited from earlier work
cancer cells [8] = conditions: cancer cells versus normal cells; Kaur et al. 2006; cited from earlier work
[9] = in vitro assays; Kaur et al. 2006; cited from earlier work

Question: Which EC50 (H226 (human lung cancer)) does the source give for `CCCN(C(=O)[C@@H](NC(=O)[C@H]1CCCCN1C)[C@@H](C)CC)[C@H](C[C@@H](OC(=O)NC)c1nc(C(=O)N[C@@H](Cc2ccc(N)cc2)CC(C)(C)C(=O)O)cs1)C(C)C` [(Ia-2), (S)-5-(4-aminophenyl)-4-(2-((5R,7R,10S)-10-((S)-sec-butyl)-7-isopropyl-12-((R)-1-methylpiperidin-2-yl)-3,9,12-trioxo-8-propyl-4-oxa-2,8,11-triazadodecan-5-yl)thiazole-4-carboxamido)-2,2-dimethylpentanoic acid] here?
Answer: 0.33 to 1.1 nM

Question: What about the EC50 [1] of the same compound?
Answer: 0.65 to 1 nM

Question: And the EC50 [2]?
Answer: 0.07 to 0.1 nM

Question: What about the EC50 [3] of the same compound?
Answer: 0.58 nM

Question: What about the EC50 [4] of the same compound?
Answer: 1.22 nM

Question: And the EC50 [5]?
Answer: 9.5 nM

Question: For `CCCN(C(=O)[C@@H](NC(=O)[C@H](NC)C(C)C)[C@@H](C)CC)[C@H](C[C@@H](OC(C)=O)c1nc(C(=O)N[C@@H](Cc2ccccc2)CC(C)(C)C(=O)O)cs1)C(C)C` [(Ic-1), (S)-4-(2-((3R,6S,9R,11R)-6-((S)-sec-butyl)-3,9-diisopropyl-4,7,13-trioxo-8-propyl-12-oxa-2,5,8-triazatetradecan-11-yl)thiazole-4-carboxamido)-2,2-dimethyl-5-phenylpentanoic acid], which EC50 (H226 (human lung cancer)) is on record?
Answer: 0.038 nM

Question: What about the EC50 [1] of the same compound?
Answer: 0.2 nM

Question: And the EC50 [2]?
Answer: 0.012 nM

Question: And the EC50 [3]?
Answer: 0.064 nM

Question: And the EC50 [4]?
Answer: 0.51 nM

Question: Which EC50 (H226 (human lung cancer)) does the source give for `CCCN(C(=O)[C@@H](NC(=O)[C@H]1CCCCN1C)[C@@H](C)CC)[C@H](C[C@@H](OC(C)=O)c1nc(C(=O)N[C@@H](Cc2ccc(N)cc2)CC(C)(C)C(=O)O)cs1)C(C)C` [(Ia-1)] here?
Answer: 0.089 nM

Question: What about the EC50 [1] of the same compound?
Answer: 0.03 to 0.2 nM

Question: And the EC50 [2]?
Answer: 0.016 to 0.04 nM

Question: For `CCCN(C(=O)[C@@H](NC(=O)[C@H](NC)C(C)C)[C@@H](C)CC)[C@H](C[C@@H](OC(=O)NC)c1nc(C(=O)N[C@@H](Cc2ccccc2)CC(C)(C)C(=O)O)cs1)C(C)C` [(Ic-2)], which EC50 (H226 (human lung cancer)) is on record?
Answer: 0.31 nM

Question: What about the EC50 [1] of the same compound?
Answer: 0.37 nM

Question: What about the EC50 [2] of the same compound?
Answer: 0.04 nM

Question: And the EC50 [3]?
Answer: 0.26 nM

Question: And the EC50 [4]?
Answer: 7.5 nM

Question: With `CCCN(C(=O)[C@@H](NC(=O)[C@H]1CCCCN1C)C(C)C)[C@H](C[C@@H](OC(C)=O)c1nc(C(=O)N[C@@H](Cc2ccc(N)cc2)CC(C)(C)C(=O)O)cs1)C(C)C` [(Ia-3)] as the compound, how does the EC50 (H226 (human lung cancer)) read?
Answer: 0.086 nM

Question: And the EC50 [1]?
Answer: 0.16 nM

Question: And the EC50 [2]?
Answer: 0.019 nM

Question: And the EC50 [3]?
Answer: 0.13 nM

Question: And the EC50 [4]?
Answer: 0.19 nM

Question: Which EC50 (H226 (human lung cancer)) does the source give for `CCCN(C(=O)[C@@H](NC(=O)[C@H]1CCCCN1C)[C@@H](C)CC)[C@H](C[C@@H](OC(=O)NC)c1nc(C(=O)N[C@@H](Cc2ccc(N)cc2)CC2(C(=O)OC)CC2)cs1)C(C)C` [(Ib-2), methyl 1-((S)-3-(4-aminophenyl)-2-(2-((5R,7R,10S)-10-((S)-sec-butyl)-7-isopropyl-12-((R)-1-methylpiperidin-2-yl)-3,9,12-trioxo-8-propyl-4-oxa-2,8,11-triazadodecan-5-yl)thiazole-4-carboxamido)propyl)cyclopropanecarboxylate] here?
Answer: 0.4 nM

Question: And the EC50 [1]?
Answer: 4.4 nM

Question: What about the EC50 [2] of the same compound?
Answer: 0.15 nM

Question: With `CC[C@H](C)[C@H](NC(=O)[C@H]1CCCCN1C)C(=O)N(COC(=O)CC(C)C)[C@H](C[C@@H](OC(C)=O)c1nc(C(=O)N[C@@H](Cc2ccc(O)cc2)C[C@H](C)C(=O)O)cs1)C(C)C` [tubulysin A] as the compound, how does the “antiproliferative potency compared with paclitaxel and vinblastine” value (cancer cells [6]) read?
Answer: more potent than paclitaxel and vinblastine

Question: What about the “activity in xenograft assays” value [7] of the same compound?
Answer: active in xenograft assays

Question: What about the induction of apoptosis (cancer cells [8]) of the same compound?
Answer: induced apoptosis in cancer cells but not in normal cells

Question: And the antiangiogenic properties [9]?
Answer: significant potential antiangiogenic properties

Question: For `CCCN(C(=O)[C@@H](NC(=O)[C@H]1CCCCN1C)[C@@H](C)CC)[C@H](C[C@@H](OC(=O)NC)c1nc(C(=O)N[C@@H](Cc2ccc(N)cc2)CC2(C(=O)O)CC2)cs1)C(C)C` [(Ib-1), 1-((S)-3-(4-aminophenyl)-2-(2-((5R,7R,10S)-10-((S)-sec-butyl)-7-isopropyl-12-((R)-1-methylpiperidin-2-yl)-3,9,12-trioxo-8-propyl-4-oxa-2,8,11-triazadodecan-5-yl)thiazole-4-carboxamido)propyl)cyclopropanecarboxylic acid], which EC50 (H226 (human lung cancer)) is on record?
Answer: 0.63 nM

Question: What about the EC50 [1] of the same compound?
Answer: 1.7 nM

Question: What about the EC50 [2] of the same compound?
Answer: 0.07 nM

Question: For `CCCN(C(=O)[C@@H](NC(=O)[C@H]1CCCCN1C)[C@@H](C)CC)[C@H](C[C@@H](OC(=O)NC)c1nc(C(=O)N[C@H](CCC(=O)O)Cc2ccc(N)cc2)cs1)C(C)C` [(E), reference compound], which EC50 (H226 (human lung cancer)) is on record?
Answer: 28 nM

Question: What about the EC50 [5] of the same compound?
Answer: 189 nM
